{"source": "ChEMBL document CHEMBL3860083", "about": "“Tautomeric and non-tautomeric N-substituted 2-iminobenzimidazolines as new lead compounds for the design of anti-influenza drugs: An in vitro study” (Bioorg Med Chem, 2016)", "key": {"[1]": {"test": "Selectivity index, ratio of CC50 for MDCK cells to IC50 for Influenza A virus (A/California/07/09(H1N1)) pdm09", "type": "functional"}, "[2]": {"test": "Cytotoxicity against MDCK cells assessed as increase in cell death after 48 hrs by MTT assay", "type": "toxicity, cell-based, Canis lupus familiaris", "conditions": "dog"}, "[3]": {"test": "Antiviral activity against Influenza A virus (A/California/07/09(H1N1))pdm09 infected in MDCK cells assessed as decrease in virus production preincubated for 1 hr with cells followed by viral infection measured after 24 hrs by hemagglutination assay", "type": "functional, cell-based, Influenza A virus (A/California/07/2009(H1N1))"}, "[4]": {"tested_on": "Junin virus", "test": "Antiviral activity against Junin virus", "type": "functional", "conditions": "Mammarenavirus juninense"}, "[5]": {"tested_on": "Lassa virus", "test": "Antiviral activity against Lassa virus", "type": "functional", "conditions": "Mammarenavirus lassaense"}, "[6]": {"tested_on": "Machupo mammarenavirus", "test": "Antiviral activity against Machupo virus", "type": "functional", "conditions": "Mammarenavirus machupoense"}, "[7]": {"tested_on": "Guanarito virus", "test": "Antiviral activity against Guanarito virus", "type": "functional", "conditions": "Mammarenavirus guanaritoense"}, "[8]": {"tested_on": "Sabia virus", "test": "Antiviral activity against Sabia virus", "type": "functional"}}, "data": [{"smiles": "Cc1ccc(OCCn2c(=N)n(CC(N)=O)c3ccccc32)cc1.Cl", "values": [{"measurement": "Ratio CC50/IC50", "setting": "[1]", "result": 9}, {"measurement": "CC50 at 48 h", "setting": "[2]", "result": 309, "unit": "µM"}, {"measurement": "IC50", "setting": "[3]", "result": 35.8, "unit": "µM"}]}, {"smiles": "O=C(Nc1nc2ccccc2n1CCOc1ccc(Cl)cc1)c1ccco1", "values": [{"measurement": "Ratio CC50/IC50", "setting": "[1]", "result": 6}, {"measurement": "CC50 at 48 h", "setting": "[2]", "result": 346, "unit": "µM"}, {"measurement": "IC50", "setting": "[3]", "result": 57.6, "unit": "µM"}]}, {"smiles": "COc1ccc(OCCn2/c(=N/C(=O)c3cccs3)[nH]c3ccccc32)cc1", "values": [{"measurement": "Ratio CC50/IC50", "setting": "[1]", "result": ">6"}, {"measurement": "CC50 at 48 h", "setting": "[2]", "result": "> 2540", "unit": "µM"}, {"measurement": "IC50", "setting": "[3]", "result": 450, "unit": "µM"}]}, {"smiles": "Cl.N=c1n(Cc2ccc(F)cc2)c2ccccc2n1Cc1ccc(Cl)c(Cl)c1", "values": [{"measurement": "Ratio CC50/IC50", "setting": "[1]", "result": 5}, {"measurement": "CC50 at 48 h", "setting": "[2]", "result": 21.8, "unit": "µM"}, {"measurement": "IC50", "setting": "[3]", "result": 4.5, "unit": "µM"}]}, {"smiles": "Cl.N=c1n(CCOc2ccc(F)cc2)c2ccccc2n1CC(N)=O", "values": [{"measurement": "Ratio CC50/IC50", "setting": "[1]", "result": 23}, {"measurement": "CC50 at 48 h", "setting": "[2]", "result": 1260, "unit": "µM"}, {"measurement": "IC50", "setting": "[3]", "result": 54.8, "unit": "µM"}]}, {"smiles": "S=C(Nc1ccccc1)Nc1nc2ccccc2n1CCOc1ccc(Br)cc1", "values": [{"measurement": "Ratio CC50/IC50", "setting": "[1]", "result": "<1"}, {"measurement": "CC50 at 48 h", "setting": "[2]", "result": 20.3, "unit": "µM"}, {"measurement": "IC50", "setting": "[3]", "result": "> 21.4", "unit": "µM"}]}, {"smiles": "CC(C)(C)c1ccc(C(=O)/N=c2\\[nH]c3ccccc3n2CCOc2ccc(Br)cc2)cc1", "values": [{"measurement": "Ratio CC50/IC50", "setting": "[1]", "result": 54}, {"measurement": "CC50 at 48 h", "setting": "[2]", "result": 2030, "unit": "µM"}, {"measurement": "IC50", "setting": "[3]", "result": 37.4, "unit": "µM"}]}, {"smiles": "O=C(/N=c1\\[nH]c2ccccc2n1CCOc1ccc(Cl)cc1)c1cccs1", "values": [{"measurement": "Ratio CC50/IC50", "setting": "[1]", "result": 8}, {"measurement": "CC50 at 48 h", "setting": "[2]", "result": 2240, "unit": "µM"}, {"measurement": "IC50", "setting": "[3]", "result": 297, "unit": "µM"}]}, {"smiles": "O=C(Nc1nc2ccccc2n1CCOc1ccccc1)c1ccco1", "values": [{"measurement": "Ratio CC50/IC50", "setting": "[1]", "result": 50}, {"measurement": "CC50 at 48 h", "setting": "[2]", "result": 2160, "unit": "µM"}, {"measurement": "IC50", "setting": "[3]", "result": 42.9, "unit": "µM"}]}, {"smiles": "Br.C=CCn1c(=N)n(CCCOc2ccc(F)cc2)c2ccccc21", "values": [{"measurement": "Ratio CC50/IC50", "setting": "[1]", "result": 8}, {"measurement": "CC50 at 48 h", "setting": "[2]", "result": 80.1, "unit": "µM"}, {"measurement": "IC50", "setting": "[3]", "result": 9.9, "unit": "µM"}]}, {"smiles": "S=C(Nc1ccccc1)Nc1nc2ccccc2n1CCOc1ccccc1", "values": [{"measurement": "Ratio CC50/IC50", "setting": "[1]", "result": 1}, {"measurement": "CC50 at 48 h", "setting": "[2]", "result": 25.8, "unit": "µM"}, {"measurement": "IC50", "setting": "[3]", "result": 25.8, "unit": "µM"}]}, {"smiles": "CC(C)(C)c1ccc(OCCn2c(=N)n(CC(N)=O)c3ccccc32)cc1.Cl", "values": [{"measurement": "Ratio CC50/IC50", "setting": "[1]", "result": 5}, {"measurement": "CC50 at 48 h", "setting": "[2]", "result": 151, "unit": "µM"}, {"measurement": "IC50", "setting": "[3]", "result": 27.5, "unit": "µM"}]}, {"smiles": "Br.C=CCn1c(=N)n(CCOc2ccc(C(C)(C)C)cc2)c2ccccc21", "values": [{"measurement": "Ratio CC50/IC50", "setting": "[1]", "result": 8}, {"measurement": "CC50 at 48 h", "setting": "[2]", "result": 12.8, "unit": "µM"}, {"measurement": "IC50", "setting": "[3]", "result": 1.6, "unit": "µM"}]}, {"smiles": "Cl.N=c1n(CC(N)=O)c2ccccc2n1Cc1ccc(Cl)c(Cl)c1", "values": [{"measurement": "Ratio CC50/IC50", "setting": "[1]", "result": 28}, {"measurement": "CC50 at 48 h", "setting": "[2]", "result": 196, "unit": "µM"}, {"measurement": "IC50", "setting": "[3]", "result": 7, "unit": "µM"}]}, {"smiles": "O=C(/N=c1\\[nH]c2ccccc2n1CCOc1ccc(F)cc1)c1ccc(Cl)cc1", "values": [{"measurement": "Ratio CC50/IC50", "setting": "[1]", "result": ">7"}, {"measurement": "CC50 at 48 h", "setting": "[2]", "result": "> 732", "unit": "µM"}, {"measurement": "IC50", "setting": "[3]", "result": 112, "unit": "µM"}]}, {"smiles": "O=C(/N=c1\\[nH]c2ccccc2n1CCOc1ccc(F)cc1)c1ccc([N+](=O)[O-])cc1", "values": [{"measurement": "Ratio CC50/IC50", "setting": "[1]", "result": ">5"}, {"measurement": "CC50 at 48 h", "setting": "[2]", "result": "> 2550", "unit": "µM"}, {"measurement": "IC50", "setting": "[3]", "result": 543, "unit": "µM"}]}, {"smiles": "O=C(/N=c1\\[nH]c2ccccc2n1CCOc1ccc(Br)cc1)c1cccs1", "values": [{"measurement": "Ratio CC50/IC50", "setting": "[1]", "result": ">7"}, {"measurement": "CC50 at 48 h", "setting": "[2]", "result": "> 2260", "unit": "µM"}, {"measurement": "IC50", "setting": "[3]", "result": 317, "unit": "µM"}]}, {"smiles": "Br.Cc1ccc(OCCn2c(=N)n(Cc3ccc(Cl)c(Cl)c3)c3ccccc32)cc1", "values": [{"measurement": "Ratio CC50/IC50", "setting": "[1]", "result": 11}, {"measurement": "CC50 at 48 h", "setting": "[2]", "result": 13.2, "unit": "µM"}, {"measurement": "IC50", "setting": "[3]", "result": 0.6, "unit": "µM"}]}, {"smiles": "Cl.N=c1n(CO)c2ccccc2n1CCOc1ccc(Cl)cc1", "values": [{"measurement": "Ratio CC50/IC50", "setting": "[1]", "result": 9}, {"measurement": "CC50 at 48 h", "setting": "[2]", "result": 40.8, "unit": "µM"}, {"measurement": "IC50", "setting": "[3]", "result": 4.6, "unit": "µM"}]}, {"smiles": "COc1ccc(-n2cnc3cc(NCc4ccc(C)cc4)ccc32)cc1", "values": [{"measurement": "IC50", "setting": "[4]", "result": "0.0002 to 0.012", "unit": "µM"}, {"measurement": "IC50", "setting": "[5]", "result": 0.0016, "unit": "µM"}, {"measurement": "IC50", "setting": "[6]", "result": "0.0002 to 0.012", "unit": "µM"}, {"measurement": "IC50", "setting": "[7]", "result": "0.0002 to 0.012", "unit": "µM"}, {"measurement": "IC50", "setting": "[8]", "result": "0.0002 to 0.012", "unit": "µM"}]}, {"smiles": "Cc1ccccc1OCCn1/c(=N/C(=O)c2cccs2)[nH]c2ccccc21", "values": [{"measurement": "Ratio CC50/IC50", "setting": "[1]", "result": 5}, {"measurement": "CC50 at 48 h", "setting": "[2]", "result": 159, "unit": "µM"}, {"measurement": "IC50", "setting": "[3]", "result": 33.2, "unit": "µM"}]}, {"smiles": "O=C(/N=c1\\[nH]c2ccccc2n1CCOc1cccc(Cl)c1)c1ccco1", "values": [{"measurement": "Ratio CC50/IC50", "setting": "[1]", "result": 63}, {"measurement": "CC50 at 48 h", "setting": "[2]", "result": 820, "unit": "µM"}, {"measurement": "IC50", "setting": "[3]", "result": 13.1, "unit": "µM"}]}, {"smiles": "Cl.N=c1n(CCO)c2ccccc2n1Cc1ccc(Cl)c(Cl)c1", "values": [{"measurement": "Ratio CC50/IC50", "setting": "[1]", "result": 83}, {"measurement": "CC50 at 48 h", "setting": "[2]", "result": 202, "unit": "µM"}, {"measurement": "IC50", "setting": "[3]", "result": 2.4, "unit": "µM"}]}]}
